Measured values from PubChem BioAssay (NCI).
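1) Cells in 96-well plates. 2) Compound, 48 h, 5 concentrations. 3) Linear interpolation between surrounding doses. 4) Unreached endpoint = highest concentration. GI50 marks 50% less growth. TGI: total growth inhibition.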

Assays:
Assay in all cases: DTP human tumour cell line panel, 48 h
RXF 393 renal = tested on: RXF 393 renal
SK-MEL-28 melanoma = tested on: SK-MEL-28 melanoma
HT29 colon = tested on: HT29 colon
MALME-3M melanoma = tested on: MALME-3M melanoma
COLO 205 colon = tested on: COLO 205 colon
MDA-MB-435 = tested on: MDA-MB-435
M14 melanoma = tested on: M14 melanoma
HOP-92 NSCLC = tested on: HOP-92 NSCLC
A549 NSCLC = tested on: A549 NSCLC
UACC-62 melanoma = tested on: UACC-62 melanoma
KM12 colon = tested on: KM12 colon
NCI-H23 lung = tested on: NCI-H23 lung
SNB-75 CNS = tested on: SNB-75 CNS
NCI-H226 lung = tested on: NCI-H226 lung
OVCAR-8 ovarian = tested on: OVCAR-8 ovarian
SF-295 CNS = tested on: SF-295 CNS
NCI-H460 lung = tested on: NCI-H460 lung
OVCAR-4 ovarian = tested on: OVCAR-4 ovarian
U251 CNS = tested on: U251 CNS
UACC-257 melanoma = tested on: UACC-257 melanoma
DU-145 prostate = tested on: DU-145 prostate
MOLT-4 leukemia = tested on: MOLT-4 leukemia
OVCAR-3 ovarian = tested on: OVCAR-3 ovarian
CCRF-CEM leukemia = tested on: CCRF-CEM leukemia
UO-31 renal = tested on: UO-31 renal
IGROV1 ovarian = tested on: IGROV1 ovarian
CAKI-1 renal = tested on: CAKI-1 renal
SNB-19 CNS = tested on: SNB-19 CNS
786-0 renal = tested on: 786-0 renal
HCC-2998 colon = tested on: HCC-2998 colon
NCI-H522 lung = tested on: NCI-H522 lung
MCF7 breast = tested on: MCF7 breast
SK-OV-3 ovarian = tested on: SK-OV-3 ovarian
SW-620 colon = tested on: SW-620 colon
SF-539 CNS = tested on: SF-539 CNS
TK-10 renal = tested on: TK-10 renal
SK-MEL-2 melanoma = tested on: SK-MEL-2 melanoma
RPMI-8226 leukemia = tested on: RPMI-8226 leukemia
OVCAR-5 ovarian = tested on: OVCAR-5 ovarian
ACHN renal = tested on: ACHN renal
LOX IMVI melanoma = tested on: LOX IMVI melanoma
HCT-116 colon = tested on: HCT-116 colon
T-47D breast = tested on: T-47D breast
HOP-62 NSCLC = tested on: HOP-62 NSCLC
SF-268 CNS = tested on: SF-268 CNS
A498 renal = tested on: A498 renal
BT-549 breast = tested on: BT-549 breast
HCT-15 colon = tested on: HCT-15 colon
EKVX NSCLC = tested on: EKVX NSCLC
K-562 leukemia = tested on: K-562 leukemia
MDA-MB-231 breast = tested on: MDA-MB-231 breast
SN12C renal = tested on: SN12C renal
PC-3 prostate = tested on: PC-3 prostate
SK-MEL-5 melanoma = tested on: SK-MEL-5 melanoma
HS 578T breast = tested on: HS 578T breast

SMILES: CC1SC(c2ccc(Cl)c(Cl)c2)N(NC(=O)C(O)c2ccccc2)C1=O (stereo not given)
- GI50 (RXF 393 renal): 30.3 µM
- TGI (RXF 393 renal): 83.2 µM
- GI50 (SK-MEL-28 melanoma): 38.5 µM
- TGI (SK-MEL-28 melanoma): > 100 µM
- GI50 (HT29 colon): 32.3 µM
- TGI (HT29 colon): > 100 µM
- GI50 (MALME-3M melanoma): 46.2 µM
- TGI (MALME-3M melanoma): > 100 µM
- GI50 (COLO 205 colon): 44.7 µM
- TGI (COLO 205 colon): > 100 µM
- GI50 (MDA-MB-435): 41.8 µM
- TGI (MDA-MB-435): > 100 µM
- GI50 (M14 melanoma): 42.5 µM
- TGI (M14 melanoma): > 100 µM
- GI50 (HOP-92 NSCLC): 40.8 µM
- TGI (HOP-92 NSCLC): > 100 µM
- GI50 (A549 NSCLC): 29.6 µM
- TGI (A549 NSCLC): 85.4 µM
- GI50 (UACC-62 melanoma): 25.2 µM
- TGI (UACC-62 melanoma): 86.1 µM
- GI50 (KM12 colon): 42.6 µM
- TGI (KM12 colon): > 100 µM
- GI50 (NCI-H23 lung): 33.3 µM
- TGI (NCI-H23 lung): > 100 µM
- GI50 (SNB-75 CNS): 24.8 µM
- TGI (SNB-75 CNS): 90.1 µM
- GI50 (NCI-H226 lung): 33.6 µM
- TGI (NCI-H226 lung): > 100 µM
- GI50 (OVCAR-8 ovarian): 34.1 µM
- TGI (OVCAR-8 ovarian): > 100 µM
- GI50 (SF-295 CNS): 24.5 µM
- TGI (SF-295 CNS): 67.5 µM
- GI50 (NCI-H460 lung): 33.5 µM
- TGI (NCI-H460 lung): > 100 µM
- GI50 (OVCAR-4 ovarian): 32.6 µM
- TGI (OVCAR-4 ovarian): 91.2 µM
- GI50 (U251 CNS): 41 µM
- TGI (U251 CNS): > 100 µM
- GI50 (UACC-257 melanoma): 35.1 µM
- TGI (UACC-257 melanoma): > 100 µM
- GI50 (DU-145 prostate): 59.2 µM
- TGI (DU-145 prostate): > 100 µM
- GI50 (MOLT-4 leukemia): 26.6 µM
- TGI (MOLT-4 leukemia): 82.2 µM
- GI50 (OVCAR-3 ovarian): 25.9 µM
- TGI (OVCAR-3 ovarian): 77.6 µM
- GI50 (CCRF-CEM leukemia): 55.1 µM
- TGI (CCRF-CEM leukemia): > 100 µM
- GI50 (UO-31 renal): 36.6 µM
- TGI (UO-31 renal): > 100 µM
- GI50 (IGROV1 ovarian): 28.5 µM
- TGI (IGROV1 ovarian): 74.6 µM
- GI50 (CAKI-1 renal): 30.7 µM
- TGI (CAKI-1 renal): > 100 µM
- GI50 (SNB-19 CNS): 93.2 µM
- TGI (SNB-19 CNS): > 100 µM
- GI50 (786-0 renal): 79.6 µM
- TGI (786-0 renal): > 100 µM
- GI50 (HCC-2998 colon): 36.9 µM
- TGI (HCC-2998 colon): > 100 µM
- GI50 (NCI-H522 lung): 28.4 µM
- TGI (NCI-H522 lung): 98.5 µM
- GI50 (MCF7 breast): 47.1 µM
- TGI (MCF7 breast): > 100 µM
- GI50 (SK-OV-3 ovarian): > 100 µM
- TGI (SK-OV-3 ovarian): > 100 µM
- GI50 (SW-620 colon): 77.2 µM
- TGI (SW-620 colon): > 100 µM
- GI50 (SF-539 CNS): 72.6 µM
- TGI (SF-539 CNS): > 100 µM
- GI50 (TK-10 renal): 41.3 µM
- TGI (TK-10 renal): > 100 µM
- GI50 (SK-MEL-2 melanoma): 45.4 µM
- TGI (SK-MEL-2 melanoma): > 100 µM
- GI50 (RPMI-8226 leukemia): 25 µM
- TGI (RPMI-8226 leukemia): 66 µM
- GI50 (OVCAR-5 ovarian): 70.1 µM
- TGI (OVCAR-5 ovarian): > 100 µM
- GI50 (ACHN renal): 33.3 µM
- TGI (ACHN renal): > 100 µM
- GI50 (LOX IMVI melanoma): 55.2 µM
- TGI (LOX IMVI melanoma): > 100 µM
- GI50 (HCT-116 colon): 43.2 µM
- TGI (HCT-116 colon): > 100 µM
- GI50 (T-47D breast): 67.5 µM
- TGI (T-47D breast): > 100 µM
- GI50 (HOP-62 NSCLC): 85.1 µM
- TGI (HOP-62 NSCLC): > 100 µM
- GI50 (SF-268 CNS): 55.7 µM
- TGI (SF-268 CNS): > 100 µM
- GI50 (A498 renal): 77.1 µM
- TGI (A498 renal): > 100 µM
- GI50 (BT-549 breast): 45 µM
- TGI (BT-549 breast): > 100 µM
- GI50 (HCT-15 colon): 45.5 µM
- TGI (HCT-15 colon): > 100 µM
- GI50 (EKVX NSCLC): 43.7 µM
- TGI (EKVX NSCLC): > 100 µM
- GI50 (K-562 leukemia): 57.1 µM
- TGI (K-562 leukemia): > 100 µM
- GI50 (MDA-MB-231 breast): 31.3 µM
- TGI (MDA-MB-231 breast): > 100 µM
- GI50 (SN12C renal): 44.1 µM
- TGI (SN12C renal): > 100 µM
- GI50 (PC-3 prostate): 35 µM
- TGI (PC-3 prostate): > 100 µM
- GI50 (SK-MEL-5 melanoma): 38.1 µM
- TGI (SK-MEL-5 melanoma): > 100 µM
- GI50 (HS 578T breast): 51.1 µM
- TGI (HS 578T breast): > 100 µM
